The target of assay [1] is BACE 1 (beta secretase enzyme) (Homo sapiens, UniProt P56817). The assay can be described thus: In vitro enzymatic BACE FRET assay. Conditions: average IC50, pH 4.2. In kind it is biochemical. Here is the method: In Vitro Enzymatic BACE FRET (Fluorescence Resonance Energy Transfer) Assay
The assay buffer used in this screen is 0.05 M acetate, pH 4.2, 10% DMSO final, 100 uM genapol (which is a nonionic detergent, below its Critical Micelle Concentration). The beta secretase enzyme (0.2 nM) is pre-incubated for one hour with inhibitors, typically in about 1 uL of DMSO according to a serial dilution, are added thereto. This assay is effectively started by the addition of FRET substrate (50 nM) and the combination is incubated for one hour. The FRET assay is terminated with by addition of Tris buffer, which raises the pH to neutrality, and the fluorescence is determined. The FRET substrate is a peptide with commercially available fluorophore and quencher, on opposite sides of the BACE cleavage site. Proteolytic cleavage of the FRET substrate releases quenching of fluorescence (excitation […] and […]).

In assay [2] the test system is Aβ40 in conditioned medium of cells stably expressing Amyloid Precursor Protein (APP). The assay can be described thus: In vitro BACE cell-based assay (HEK cell assay, Aβ40 sandwich ELISA). Conditions: average IC50, Aβ40, 24 h incubation. The method, then:
In Vitro BACE Cell-Based Assay
The cell-based assay measures inhibition or reduction of Aβ40 in conditioned medium of test compound treated cells expressing amyloid precursor protein.
Cells stably expressing Amyloid Precursor Protein (APP) were plated at a density of 40K cells/well in 96 well plates (Costar). The cells were cultivated for 24 hours at 37° C. and 5% CO2 in DMEM supplemented with 10% FBS. The test compounds were then added to cells in 10-point dose response concentrations with the starting concentration being either 100 μM or 10 μM. The compounds were diluted from stock solutions in DMSO and the final DMSO concentration of the test compounds on cells was 0.1%. After 24 h of incubation with the test compounds the supernatant conditioned media was collected and the Aβ 40 levels were determined using a sandwich ELISA. The IC50 of the compound was calculated from the percent of control or percent inhibition of Aβ 40 as a function of the concentration of the test compound.
The sandwich ELISA to detect Aβ 40 was performed in 96 well microtiter plates, which were pre-treated with goat anti-rabbit IgG (Pierce). The capture and detecting antibody pair that were used to detect Aβ 40 from cell supernatants were affinity purified pAb40 (Biosource) and biotinylated 6E10 (Signet Labs Inc.), respectively. The optimal concentration for the pAb40 antibody was 3 μg/ml in Superblock/TBS (Pierce) that was supplemented with 0.05% Tween 20 (Sigma). Optimal concentration for the detection antibody 6E10-biotinylated was 0.5 μg/ml in Superblock/TBS (Pierce) that had been supplemented with 2% normal goat serum and 2% normal mouse serum.
Cellular supernatants were incubated with the capture antibody for 3 h at 4° C., followed by 3 wash steps in TBS-tween (0.05%). The detecting antibody incubation was for 2 h at 4° C., again followed by the wash steps as described previously. The final readout of the ELISA is Time-Resolved Fluorescence (counts per minute) using Delfia reagents Streptavidin-Europium and Enhancement solutions (Perkin Elmer) and the Victor 2 multilabel counter (Perkin Elmer).

For assay [3], the target named is T1, Cathepsin D (Homo sapiens, UniProt P07339).
T1 construct: made in house; host or cells: CHO cells
T1 sequence (P07339 65-412, species assumed): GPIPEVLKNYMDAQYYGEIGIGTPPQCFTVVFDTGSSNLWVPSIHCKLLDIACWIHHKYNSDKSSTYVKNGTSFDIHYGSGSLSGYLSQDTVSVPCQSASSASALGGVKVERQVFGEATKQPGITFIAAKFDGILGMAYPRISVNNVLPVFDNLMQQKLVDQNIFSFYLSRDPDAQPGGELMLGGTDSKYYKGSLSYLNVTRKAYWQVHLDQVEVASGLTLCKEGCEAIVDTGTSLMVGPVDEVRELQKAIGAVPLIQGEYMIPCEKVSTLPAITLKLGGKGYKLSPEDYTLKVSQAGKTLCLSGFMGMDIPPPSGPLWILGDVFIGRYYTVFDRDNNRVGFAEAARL
The assay can be described thus: In vitro enzymatic Cat D (Cathepsin D) FRET assay. The class given is biochemical. Conditions: average IC50, pH 3.5. The method, then:
In Vitro Enzymatic Cat D (Cathepsin D) FRET (Fluorescence Resonance Energy Transfer) Assay
Recombinant CathepsinD was expressed in CHO cells. The assay buffer for CathepsinD is 0.05 M citrate pH 3.5, 10% DMSO final, 5 mM CHAPS. The CathepsinD enzyme (9 nM) is pre-incubated for one hour with inhibitors, typically in about 1 uL of DMSO according to a serial dilution, is added thereto. The assays are effectively started by the addition of different FRET substrates (20 nM for CathepsinD) and the combination is incubated for one hour. The FRET assay is terminated with by addition of Tris buffer, which raises the pH to neutrality, and the fluorescence is determined. The FRET substrate is a peptide with commercially available fluorophore and quencher, on opposite sides of the BACE cleavage site. The CathepsinD substrate peptide sequence is based on sequence #1 of Table 1 from Gulnik et al. FEBS Letters v413 p 379-384 1997. Proteolytic cleavage of the FRET substrate releases quenching of fluorescence (CathepsinD excitation 500 nm and emission 580 nm). […]

Assay [4] has as its system Abeta 40. Kind of assay: In vivo inhibition of beta-secretase: Abeta 40 reduction in rat CSF and brain. The note with it: after 4 hrs; for % reduction of rat CSF Abeta 40 levels at 10 mpk: Abeta 40, rat CSF; for % reduction of rat brain levels at 10 mpk: Abeta 40, rat brain. An excerpt: In Vivo Inhibition of Beta-Secretase
Several animal models, including mouse, rat, dog, and monkey, may be used to screen for inhibition of beta-secretase activity in vivo following administration of a test compound sample. Animals used in this invention can be wild type, transgenic, or gene knockout animals. For example, the Tg2576 mouse model, prepared and conducted as described in Hsiao et al., 1996, Science 274, 99-102, and other non-transgenic or gene knockout animals are useful to analyze in vivo inhibition of Amyloid beta peptide (Abeta) production in the presence of inhibitory test compounds. Generally, 2 to 18 month old Tg2576 mice, gene knockout mice or non-transgenic animals are administered test compounds formulated in vehicles, such as cyclodextran, phosphate buffers, hydroxypropyl methylcellulose or other suitable vehicles. One to twenty-four hours following the administration of compound, animals are sacrificed, and brains as well as cerebrospinal fluid (CSF) and plasma are removed for analysis of A-beta levels and drug or test compound concentrations (Dovey et al., 2001, Journal of Neurochemistry, 76, 173-181) Beginning at time 0, animals are administered by oral gavage, or other means of delivery such as intravenous injection, an inhibitory test compound of up to 100 mg/kg in a standard, conventional formulation, such as 2% hydroxypropyl methylcellulose, 1% Tween80. A separate group of animals receive 2% hydroxypropyl methylcellulose, 1% Tween80 alone, containing no test compound, and serve as a vehicle-control group. At the end of the test period, animals are sacrificed and brain tissues, plasma or cerebrospinal fluid are collected. Brains are either homogenized in 10 volumes (w/v) of 0.2% diethylamine (DEA) in 50 mM NaCl (Best et al., 2005, Journal of Pharmacology and Experimental Therapeutics, 313, 902-908), or in 10 volumes of 0.5% TritonX-100 in Tris-buffered saline (pH at about 7.6). Homogenates are centrifuged at 355,000 g, 4° C. for 30 minutes. CSF or brain supernatants are then analyzed for the presence of A-beta peptide by specific sandwich ELISA assays based on ECL (Electrochemiluminescence) technology. For example, rat Abeta40 is measured using biotinylated-4G8 (Signet) as a capture antibody and Fab40 (an in-house antibody specific to the C-terminal of Abeta40) as a detection antibody. For example, 4 hours after administration of 30 mg/kg oral dose of the test compound in 2% hydroxypropyl methylcellulose, 1% Tween80 (pH2.2) to 200 g male Sprague Dawley rats, amyloid beta peptide levels are measured for reduction by X % and Y % in cerebrospinal fluid and brain, respectively, when compared to the levels measured in the vehicle-treated rats.
Actual vehicles used: Oral: 2% HPMC, 1% Tween80, pH 2.2
The compounds of the invention may be shown to reduce the formation and/or deposition of amyloid beta peptide in the cerebrospinal fluid (CSF) as well as in the brain of a mouse or rat at either 3 mpk, 10 mpk or 30 mpk (mpk=mg compound per kg weight of the animal) dosing concentrations after 4 hrs.

BACE 1 (beta secretase enzyme), sequence (P56817 46-501): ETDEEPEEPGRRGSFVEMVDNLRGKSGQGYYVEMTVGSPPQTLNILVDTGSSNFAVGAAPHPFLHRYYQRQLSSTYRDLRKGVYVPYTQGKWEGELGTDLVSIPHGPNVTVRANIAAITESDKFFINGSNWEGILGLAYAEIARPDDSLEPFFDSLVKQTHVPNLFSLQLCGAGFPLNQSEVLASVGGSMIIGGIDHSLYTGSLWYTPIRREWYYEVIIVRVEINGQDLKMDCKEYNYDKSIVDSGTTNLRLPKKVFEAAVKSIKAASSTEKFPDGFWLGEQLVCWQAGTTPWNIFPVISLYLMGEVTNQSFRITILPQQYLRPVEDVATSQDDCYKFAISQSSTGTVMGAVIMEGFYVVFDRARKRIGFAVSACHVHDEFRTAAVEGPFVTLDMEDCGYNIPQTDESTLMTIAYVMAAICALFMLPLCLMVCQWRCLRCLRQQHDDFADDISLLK

On to `COc1cnc2c(Nc3ccc4c(c3)[C@@]3(CCSC(N)=N3)c3cc(-c5ccnc(OC(C)C)c5)nc(F)c3O4)nccc2c1` [Example 40, (5S)-1-fluoro-N~7~-(3-methoxy-1,7-naphthyridin-8-yl)-3-(2-(1-methylethoxy)-4-pyridinyl)-5′,6′-dihydrospiro[chromeno[2,3-c]pyridine-5,4′-[1,3]thiazine]-2′,7-diamine], for which the IC50 – broadly, the concentration at which inhibition is half-maximal – turned out to be 15.6 nM in assay [1]; 138 nM in assay [2] (Homo sapiens, HEK293); 400000 nM in assay [3].

As to `COc1cnc2c(Nc3ccc4c(c3)[C@@]3(CCOC(N)=N3)c3cc(C(C)C)ncc3O4)nccc2c1` [Example 36, (5S)-N~7~-(3-methoxy-1,7-naphthyridin-8-yl)-3-(1-methylethyl)-5′,6′-dihydrospiro[chromeno[2,3-c]pyridine-5,4′-[l,3]oxazine]-2′,7-diamine], the IC50 was determined as 11.3 nM in assay [1]; 2.7 nM in assay [2] (Homo sapiens, HEK293); 133000 nM in assay [3]. Further, the “% reduction of rat CSF Abeta 40 levels at 10 mpk” value in assay [4] was determined as 58%. Further, in assay [4], the “% reduction of rat brain levels at 10 mpk” value is listed as 19%.

Consider `COc1cnc2c(Nc3ccc4c(c3)[C@@]3(CCSC(N)=N3)c3cc(-c5ccnc(F)c5)nc(F)c3O4)nccc2c1` [Example 39, (5S)-1-fluoro-3-(2-fluoro-4-pyridinyl)-N~7~-(3-methoxy-1,7-naphthyridin-8-yl)-5′,6′-dihydrospiro[chromeno[2,3-c]pyridine-5,4′-[1,3]thiazine]-2′,7-diamine], for which the IC50 turned out to be 3.2 nM in assay [1]; 12.3 nM in assay [2] (Homo sapiens, HEK293); 338000 nM in assay [3].

As to `Cc1nc2c(Nc3ccc4c(c3)[C@@]3(CCOC(N)=N3)c3cc(C5=CCOCC5)ncc3O4)nccc2s1` [Example 44, (5S)-3-(3,6-dihydro-2H-pyran-4-yl)-N~7~-(2-methyl[1,3]thiazolo[4,5-c]pyridin-4-yl)-5′,6′-dihydrospiro[chromeno[2,3-c]pyridine-5,4′-[1,3]oxazine]-2′,7-diamine], the IC50 in assay [1] is 5.3 nM; in assay [2] (Homo sapiens, HEK293) it was 4.1 nM; in assay [3] it was 400000 nM.

In the case of `COc1cnc2c(Nc3ccc4c(c3)[C@@]3(CCOC(N)=N3)c3cc(C5CC5)ncc3O4)nccc2c1` [Example 38], the IC50 in assay [1] worked out at 17.9 nM; in assay [2] (Homo sapiens, HEK293), 2 nM; in assay [3], 400000 nM. In addition, the “% reduction of rat CSF Abeta 40 levels at 10 mpk” value in assay [4] is listed as 39%. Also, the “% reduction of rat brain levels at 10 mpk” value in assay [4] was found to be 25%.

Consider `COc1cnc2c(Nc3ccc4c(c3)[C@@]3(CCSC(N)=N3)c3cc(C5=CCCOC5)nc(F)c3O4)nccc2c1` [Example 31, (5S)-3-(5,6-dihydro-2H-pyran-3-yl)-1-fluoro-N~7~-(3-methoxy-1,7-naphthyridin-8-yl)-5′,6′-dihydrospiro[chromeno[2,3-c]pyridine-5,4′-[1,3]thiazine]-2′,7-diamine], for which the IC50 in assay [1] worked out at 4.3 nM; in assay [2] (Homo sapiens, HEK293) it was 5.3 nM; in assay [3] it was 313000 nM.

In the case of `COc1cnc2c(Nc3ccc4c(c3)[C@@]3(CCOC(N)=N3)c3cc(C5=CCOCC5)ncc3O4)ccnc2c1` [Example 33], the IC50 in assay [1] was 19.4 nM; in assay [2], 0.4 nM.

On to `COc1cnc2c(Nc3ccc4c(c3)[C@@]3(CCOC(N)=N3)c3cc(C5CC5)ncc3O4)nccc2n1` [Example 42, (5S)-3-cyclopropyl-N~7~-(2-methoxypyrido[3,4-b]pyrazin-5-yl)-5′,6′-dihydrospiro[chromeno[2,3-c]pyridine-5,4′-[1,3]oxazine]-2′,7-diamine], for which the IC50 in assay [1] came to 6.9 nM; in assay [2] (Homo sapiens, HEK293) it was 2.6 nM; in assay [3] it was 400000 nM.

As to `COc1cnc2c(Nc3ccc4c(c3)[C@@]3(CCOC(N)=N3)c3cc(Cl)nc(F)c3O4)nccc2c1` [Example 35, (5S)-3-chloro-1-fluoro-N-~7~-(3-methoxy-1,7-naphthyridin-8-yl)-5′,6′-dihydrospiro[chromeno[2,3-c]pyridine-5,4′-[1,3]oxazine]-2′,7-diamine], the 50% inhibitory concentration (IC50) in assay [1] came out at 97.2 nM; in assay [2] (Homo sapiens, HEK293) it was 35.3 nM; in assay [3], 400000 nM.

As to `COc1cnc2c(Nc3ccc4c(c3)[C@@]3(CCOC(N)=N3)c3cc(C5=CCOCC5)ncc3O4)nccc2c1` [Example 43, (5S)-3-(3,6-dihydro-2H-pyran-4-yl)-N~7~-(3-methoxy-1,7-naphthyridin-8-yl)-5′,6′-dihydrospiro[chromeno[2,3-c]pyridine-5,4′-[1,3]oxazine]-2′,7-diamine], the IC50 is 14.8 nM in assay [1]; 2.6 nM in assay [2] (Homo sapiens, HEK293); 400000 nM in assay [3].

Consider `COc1cnc2c(Nc3ccc4c(c3)[C@@]3(CCSC(N)=N3)c3cc(-c5cncc(F)c5)nc(F)c3O4)nccc2c1` [Example 41, (5S)-1-fluoro-3-(5-fluoro-3-pyridinyl)-N~7~-(3-methoxy-1,7-naphthyridin-8-yl)-5′,6′-dihydrospiro[chromeno[2,3-c]pyridine-5,4′-[1,3]thiazine]-2′,7-diamine], for which the IC50 in assay [1] stood at 3.2 nM; in assay [2] (Homo sapiens, HEK293), 16 nM; in assay [3], 400000 nM.

The record behind these values is US9725469B2, “Amino-oxazine and amino-dihydrothiazine compounds as beta-secretase modulators and methods of use” (Amgen Inc., priority 2012, dated 2017).
